Laboratory results: the supplement of paper PMC10307832

Columns and labels:
Test in all cases: relative viability (nuclei count vs DMSO), 5 days (fraction); higher = more cells survive
Adavosertib + Lapatinib = compound: C=CCn1c(=O)c2cnc(Nc3ccc(N4CCN(C)CC4)cc3)nc2n1-c1cccc(C(C)(C)O)n1 [Adavosertib] + CS(=O)(=O)CCNCc1ccc(-c2ccc3ncnc(Nc4ccc(OCc5cccc(F)c5)c(Cl)c4)c3c2)o1 [Lapatinib] (partner 2 µM)
In short: (§1)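 Values are medians from duplicate plates. Each reflects relative viability, defined as the nuclei count of treated wells over that of vehicle wells. Lung cancer cell lines in 1536-well plates were pin-tool dosed one day after seeding with one drug alone or with a fixed anchor-drug dose plus five library-drug doses (not always all listed) in √10 steps, then fixed, stained and imaged at 4× after 5 days.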

Nelarabine + Crizotinib = compound: COc1nc(N)nc2c1ncn2[C@@H]1O[C@H](CO)[C@@H](O)[C@@H]1O [Nelarabine] + C[C@@H](Oc1cc(-c2cnn(C3CCNCC3)c2)cnc1N)c1c(Cl)ccc(F)c1Cl [Crizotinib] (partner 1 µM)
In short: as §1

Nelarabine + Decitabine = compound: COc1nc(N)nc2c1ncn2[C@@H]1O[C@H](CO)[C@@H](O)[C@@H]1O [Nelarabine] + Nc1ncn([C@H]2C[C@H](O)[C@@H](CO)O2)c(=O)n1 [Decitabine] (partner 2 µM)
In short: as §1

Nelarabine + Olaparib = compound: COc1nc(N)nc2c1ncn2[C@@H]1O[C@H](CO)[C@@H](O)[C@@H]1O [Nelarabine] + O=C(c1cc(Cc2n[nH]c(=O)c3ccccc23)ccc1F)N1CCN(C(=O)C2CC2)CC1 [Olaparib] (partner 8 µM)
In short: as §1

Cell Line | relative viability (Adavosertib + Lapatinib; first compound 0.01 µM) | relative viability (Adavosertib + Lapatinib; first compound 0.03162 µM) | relative viability (Adavosertib + Lapatinib; first compound 0.1 µM) | relative viability (Adavosertib + Lapatinib; first compound 0.3162 µM) | relative viability (Nelarabine + Crizotinib; first compound 0.01 µM) | relative viability (Nelarabine + Crizotinib; first compound 0.03162 µM) | relative viability (Nelarabine + Crizotinib; first compound 0.1 µM) | relative viability (Nelarabine + Crizotinib; first compound 0.3162 µM) | relative viability (Nelarabine + Crizotinib; first compound 1 µM) | relative viability (Nelarabine + Decitabine; first compound 0.01 µM) | relative viability (Nelarabine + Decitabine; first compound 0.03162 µM) | relative viability (Nelarabine + Decitabine; first compound 0.1 µM) | relative viability (Nelarabine + Decitabine; first compound 0.3162 µM) | relative viability (Nelarabine + Decitabine; first compound 1 µM) | relative viability (Nelarabine + Olaparib; first compound 0.01 µM) | relative viability (Nelarabine + Olaparib; first compound 0.03162 µM) | relative viability (Nelarabine + Olaparib; first compound 0.1 µM) | relative viability (Nelarabine + Olaparib; first compound 0.3162 µM) | relative viability (Nelarabine + Olaparib; first compound 1 µM)
LXF-289 | 0.905 | 0.894 | 0.906 | 0.922 | 0.893 | 0.779 | 0.804 | 0.896 | 0.781 | 0.43 | 0.414 | 0.379 | 0.39 | 0.37 | 1.2 | 1.13 | 1.01 | 1.04 | 1.01
NCI-H23 | 0.935 | 1.25 | 0.855 | 0.328 | 0.505 | 0.485 | 0.297 | 0.495 | 0.515 | 0.249 | 0.272 | 0.299 | 0.348 | 0.303 | 0.32 | 0.235 | 0.294 | 0.33 | 0.335
NCI-H322M | – | 0.558 | 0.505 | 0.435 | 0.884 | 0.88 | 0.853 | 0.948 | 0.837 | 0.68 | 0.662 | 0.659 | 0.718 | 0.678 | 0.79 | 0.75 | 0.701 | 0.827 | 0.836
NCI-H358 | 0.355 | 0.429 | 0.46 | 0.431 | 0.58 | 0.481 | 0.4 | 0.573 | 0.514 | 0.219 | 0.214 | 0.171 | 0.215 | 0.219 | 0.616 | 0.406 | 0.587 | 0.637 | 0.627
NCI-H460 | 1.11 | 0.978 | 1.04 | 0.83 | 1.32 | 1.1 | 1.02 | 1.08 | 1.05 | 0.707 | 0.726 | 0.476 | 0.525 | 0.539 | 0.748 | 0.581 | 0.479 | 0.552 | 0.521
NCI-H520 | 0.923 | 0.822 | 0.802 | 0.858 | 0.607 | 0.519 | 0.871 | 1.07 | 0.851 | 0.566 | 0.44 | 0.512 | 0.617 | 0.485 | 0.29 | 0.29 | 0.343 | 0.366 | 0.363
NCI-H596 | 0.995 | 1.12 | 1.01 | 1 | 0.948 | 1.15 | 0.96 | 1.04 | 1.12 | 1.09 | 0.972 | 1.06 | 1.09 | 1.13 | 0.654 | 0.708 | 0.759 | 0.756 | 0.728
NCI-H647 | 1.23 | 1.08 | 1.08 | 0.727 | 1.37 | 1.22 | 1.13 | 1.41 | 1.14 | 0.483 | 0.385 | 0.381 | 0.357 | 0.38 | 0.57 | 0.498 | 0.633 | 0.541 | 0.647
NCI-H650 | 0.856 | 1.28 | 1.1 | 0.808 | 0.627 | 0.548 | 0.613 | 0.693 | 0.746 | 0.305 | 0.277 | 0.333 | 0.28 | 0.33 | 0.525 | 0.369 | 0.413 | 0.402 | 0.405
NCI-H661 | 0.542 | 0.601 | 0.514 | 0.363 | – | 0.877 | 0.989 | 0.973 | 0.934 | 0.625 | 0.614 | 0.599 | 0.628 | 0.515 | 0.876 | 0.709 | 0.762 | 0.748 | 0.796
NCI-H727 | 0.872 | 0.859 | 0.852 | 1.02 | 1.05 | 1.06 | 0.765 | 0.94 | 0.865 | 0.819 | 0.938 | 0.918 | 0.769 | 0.463 | 0.697 | 0.559 | 0.636 | 0.731 | 0.656
NCI-H838 | 0.975 | 0.921 | 0.976 | 1.07 | 0.975 | 0.575 | 0.766 | 1.02 | 0.792 | 0.54 | 0.432 | 0.473 | 0.513 | 0.466 | 0.839 | 0.743 | 0.849 | 0.89 | 0.852
NCI-H1355 | 0.955 | 1.02 | 0.966 | 0.948 | 1.44 | 0.879 | 1.02 | 1.15 | 1.08 | 0.359 | 0.347 | 0.368 | 0.37 | 0.382 | 0.824 | 0.6 | 0.684 | 0.766 | 0.74
NCI-H1437 | 0.83 | 0.778 | 0.831 | 0.812 | 1.27 | 0.844 | 0.912 | 0.895 | 0.905 | 0.627 | 0.651 | 0.568 | 0.634 | 0.557 | 0.701 | 0.611 | 0.656 | 0.695 | 0.611
NCI-H1650 | 0.75 | 0.884 | 0.747 | 0.379 | 1.07 | 0.809 | 0.999 | 0.981 | 0.847 | 0.392 | 0.447 | 0.484 | 0.478 | 0.333 | 0.922 | 0.81 | 1 | 0.883 | 0.946
NCI-H1651 | 0.956 | 0.715 | 0.752 | 0.682 | 0.959 | 0.818 | 0.902 | 0.891 | 0.899 | 0.487 | 0.725 | 0.61 | 0.648 | 0.527 | 0.183 | 0.195 | 0.213 | 0.171 | 0.193
NCI-H1666 | 0.618 | 0.667 | 0.65 | 0.575 | 1.03 | 0.679 | 0.949 | 0.975 | 1.03 | 0.651 | 0.843 | 0.736 | 0.754 | 0.668 | 0.681 | 0.638 | 0.737 | 0.665 | 0.769
